Results reported in patent publication US20260138959A1, “QUINAZOLINE DERIVATIVE COMPOUND AND USE THEREOF” (VORONOI INC., priority 2021, published 2026).

Experiments:
[1] = biological target: T1, human PDGFR-β(wt) (Homo sapiens, UniProt P09619); assay: Enzyme inhibitory activity, ADP-Glo kinase assay, PDGFR-β(wt); assay type: biochemical; details: read-out: PDGFR-β (IC50 class)
T1 construct: purchased Signalchem P13-11G
Method: In order to evaluate the inhibitory activity of the compounds synthesized according to the above examples on PDGFR-α(wt), PDGFR-β(wt), c-KIT(wt), and c-KIT(D816V) kinases, the following method was performed. The compounds of examples were reacted with purified human PDGFR-α(wt) (Signalchem #P12-18G) enzyme, human PDGFR-β(wt) (Signalchem #P13-11G) enzyme, human c-KIT(wt) (Signalchem #K06-11BG) enzyme, human c-KIT(D816V) (Signalchem #C06-12LG) enzyme, and the enzyme inhibitory abilities were evaluated by the following method.
The reaction buffer was used as a composition of 40 mM Tris-HCl pH7.4, 20 mM MgCl2, 0.5 mg/ml BSA, 50 μM DTT, and the reactions of all the tests were carried out on the reaction buffer. The compound was diluted in 12 steps using a serial dilution method from a 10 mM DMSO stock, and the enzyme activity was measured at a final compound concentration of 10˜0.00005645 μM. During the test, the enzyme activity was confirmed using in vitro ADP-Glo™ kinase assay (Promega) after reacting with the proper concentration of human PDGFR-α(wt) enzyme, human PDGFR-β(wt), human c-KIT(wt) enzyme, and human c-KIT(D816V) enzyme with purified ATP and enzyme substrate at 25° C. for 1˜2 hours. At a ratio of 2:2:1, an enzyme-active reaction solution, an ADP-Glo reaction solution, and an enzyme-active detection solution were reacted to measure the inhibition of the enzyme's activity with luminoscence. Based on the […] of the enzyme activity of the solvent control that was not treated with the compound, the degree of enzyme activity inhibition was calculated according to the treatment concentration of each compound, and the concentration of each compound that inhibits 50% of enzyme activity was determined as IC50 (nM) value and the value was obtained by using GraphPad Prism 8.3.0 (GraphPad software Inc., San Diego) software. (A: IC50≤50 nM; B: 50 nM<IC50≤100 nM; C: 100 nM<IC50≤500 nM; D: IC50>500 nM).

[2] = tested on: Ba/F3-c-KIT(D816V); assay: Proliferation inhibitory activity on Ba/F3 cell (CellTiter-Glo, 72 hours), c-KIT(D816V); assay type: cell-based; details: Mus musculus, BaF3, read-out: Ba/F3 (nM) c-KIT (D816V) (GI50 class)
Method in brief: (§1)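 In this assay, Ba/F3 transfectants are treated for 72 h at 37 °C with serially diluted compound (final 0.00005-10 μM), and viable cells are quantified by CellTiter-Glo. Results are expressed relative to vehicle to give GI50 in nM.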

[3] = tested on: c-KIT V560G/D816V; assay: Proliferation inhibitory activity on Ba/F3 cell (CellTiter-Glo, 72 hours), c-KIT V560G/D816V; assay type: cell-based; details: Mus musculus, BaF3, c-KIT V560G/D816V cells, read-out: Cell (nM) c-KIT V560G/D816V (GI50 class)
Method in brief: as §1

T1 sequence (P09619 33-1106): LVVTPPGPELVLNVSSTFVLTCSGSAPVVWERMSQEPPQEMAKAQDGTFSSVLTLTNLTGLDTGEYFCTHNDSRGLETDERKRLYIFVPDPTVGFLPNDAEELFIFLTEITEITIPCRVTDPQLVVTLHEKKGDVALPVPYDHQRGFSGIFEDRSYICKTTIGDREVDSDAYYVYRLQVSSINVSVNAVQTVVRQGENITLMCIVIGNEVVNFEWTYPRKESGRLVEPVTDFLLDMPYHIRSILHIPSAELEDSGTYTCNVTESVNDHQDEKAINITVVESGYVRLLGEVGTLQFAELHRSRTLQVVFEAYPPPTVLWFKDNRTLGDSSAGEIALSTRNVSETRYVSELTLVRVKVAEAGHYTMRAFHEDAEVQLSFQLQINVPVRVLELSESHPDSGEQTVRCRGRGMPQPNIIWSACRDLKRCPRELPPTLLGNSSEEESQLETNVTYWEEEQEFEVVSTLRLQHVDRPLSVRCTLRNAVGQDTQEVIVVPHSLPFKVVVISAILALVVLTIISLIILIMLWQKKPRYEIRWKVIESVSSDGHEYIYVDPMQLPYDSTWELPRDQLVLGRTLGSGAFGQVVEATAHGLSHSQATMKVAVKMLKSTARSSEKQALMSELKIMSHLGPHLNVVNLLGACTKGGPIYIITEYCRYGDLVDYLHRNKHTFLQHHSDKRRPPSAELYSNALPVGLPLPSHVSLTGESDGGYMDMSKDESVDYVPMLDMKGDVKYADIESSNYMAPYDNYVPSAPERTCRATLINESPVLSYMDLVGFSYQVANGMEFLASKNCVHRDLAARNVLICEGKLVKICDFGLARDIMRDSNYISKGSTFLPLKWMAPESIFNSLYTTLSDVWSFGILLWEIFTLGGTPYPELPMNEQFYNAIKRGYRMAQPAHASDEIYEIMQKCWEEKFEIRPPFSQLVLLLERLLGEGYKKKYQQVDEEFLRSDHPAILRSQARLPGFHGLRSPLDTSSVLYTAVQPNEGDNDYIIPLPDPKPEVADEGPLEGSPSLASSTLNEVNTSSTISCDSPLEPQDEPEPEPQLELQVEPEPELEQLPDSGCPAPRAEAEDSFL

Structure (SMILES) | IC50 [1] [nM] | GI50 [2] [nM] | GI50 [3] [nM]
COc1cc2c(-c3ccc(NC(=O)Cc4ccc(C(F)(F)F)nc4)cc3)ncnc2cc1OCC1CCNCC1 [Example 59, N-(4-(6-methoxy-7-(piperidin-4-ylmethoxy)quinazolin-4-yl)phenyl)-2-(6-(trifluoromethyl)pyridin-3-yl)acetamide] | ≤ 50 | 200 to 500 | –
CCN1CCC[C@@H](COc2cc3ncnc(-c4ccc(NC(=O)Cc5ccc(C(F)(F)F)cc5)cc4)c3cc2OC)C1 [Example 74, (R)-N-(4-(7-((1-ethylpiperidin-3-yl)methoxy)-6-methoxyquinazolin-4-yl)phenyl)-2-(4-(trifluoromethyl)phenyl)acetamide] | ≤ 50 | ≤ 200 | ≤ 200
COc1cc2c(-c3ccc(NC(=O)Cc4ccc(Cl)c(C(F)(F)F)c4)cc3)ncnc2cc1OCCCN1CCN(C)CC1 [Example 82, 2-(4-chloro-3-(trifluoromethyl)phenyl)-N-(4-(6-methoxy-7-(3-(4-methylpiperazin-1-yl)propoxy)quinazolin-4-yl)phenyl)acetamide] | ≤ 50 | ≤ 200 | ≤ 200
COc1cc2ncnc(-c3ccc(NC(=O)Cc4ccc(C(F)(F)F)cc4)cc3)c2cc1OCCCN1CC(CO)(CO)C1 [Example 150] | ≤ 50 | > 500 | –
COc1cc2c(-c3ccc(NC(=O)Nc4ccc(Cl)c(C(F)(F)F)c4)cc3)ncnc2cc1OCCCN1CCN(C)CC1 [Example 168, 1-(4-chloro-3-(trifluoromethyl)phenyl)-3-(4-(6-methoxy-7-(3-(4-methylpiperazin-1-yl)propoxy)quinazolin-4-yl)phenyl)urea] | 50 to 100 | – | –
CCN1CCC(COc2cc3ncnc(-c4ccc(NC(=O)Cc5ccc(Cl)nc5)cc4)c3cc2OC)CC1 [Example 70, 2-(6-chloropyridin-3-yl)-N-(4-(7-((1-ethylpiperidin-4-yl)methoxy)-6-methoxyquinazolin-4-yl)phenyl)acetamide] | ≤ 50 | ≤ 200 | ≤ 200
COc1cc2ncnc(-c3ccc(NC(=O)Cc4ccc(C(F)(F)F)cc4)cc3)c2cc1OCCCN1CCOCC1 [Example 129, N-(4-(7-methoxy-6-(3-morpholinopropoxy)quinazolin-4-yl)phenyl)-2-(4-(trifluoromethyl)phenyl)acetamide] | ≤ 50 | ≤ 200 | 200 to 500
COc1cc2c(-c3ccc(NC(=O)Cc4ccc(C(F)(F)F)cc4)cc3)ncnc2cc1OCCCN1C2CC1CN(C)C2 [Example 37, N-(4-(6-methoxy-7-(3-(3-methyl-3,6-diazabicyclo[3.1.1]heptane-6-yl)propoxy)quinazolin-4-yl)phenyl)-2-(4-(trifluoromethyl)phenyl)acetamide] | ≤ 50 | ≤ 200 | ≤ 200
COCCN1CCC(COc2cc3ncnc(-c4ccc(NC(=O)Cc5ccc(C(F)(F)F)nc5)cc4)c3cc2OC)CC1 [Example 96, N-(4-(6-methoxy-7-((1-(2-methoxyethyl)piperidin-4-yl)methoxy)quinazolin-4-yl)phenyl)-2-(6-(trifluoromethyl)pyridin-3-yl)acetamide] | ≤ 50 | – | ≤ 200
COc1cc2ncnc(-c3ccc(NC(=O)Cc4ccc(C(F)(F)F)cc4)cc3)c2cc1OCC1CCCN(C(=O)OC(C)(C)C)C1 (centres unmarked) [Example 130, tert-butyl 3-(((7-methoxy-4-(4-(2-(4-(trifluoromethyl)phenyl)acetamido)phenyl)quinazolin-6-yl)oxy)methyl)piperidin-1-carboxylate] | ≤ 50 | 200 to 500 | –
CCN1CCC(COc2cc3ncnc(-c4ccc(NC(=O)Cc5ccc(C(F)(F)F)nc5)cc4)c3cc2OC)CC1 [Example 63, N-(4-(7-((1-ethylpiperidin-4-yl)methoxy)-6-methoxyquinazolin-4-yl)phenyl)-2-(6-(trifluoromethyl)pyridin-3-yl)acetamide] | ≤ 50 | ≤ 200 | ≤ 200
COc1cc2c(-c3ccc(NC(=O)Cc4ccc(Cl)nc4)cc3)ncnc2cc1OCC1CCNCC1 [Example 69, 2-(6-chloropyridin-3-yl)-N-(4-(6-methoxy-7-(piperidin-4-ylmethoxy)quinazolin-4-yl)phenyl)acetamide] | ≤ 50 | ≤ 200 | –
COc1cc2c(-c3ccc(NC(=O)Cc4ccc(C(F)(F)F)cc4)cc3)ncnc2cc1OCCCN1C[C@@H]2C[C@H]1CN2C [Example 32, N-(4-(6-methoxy-7-(3-((1S,4S)-5-methyl-2,5-diazabicyclo[2.2.1]heptane-2-yl)propoxy)quinazolin-4-yl)phenyl)-2-(4-(trifluoromethyl)phenyl)acetamide] | ≤ 50 | ≤ 200 | ≤ 200
CCN1CCC[C@H](COc2cc3ncnc(-c4ccc(NC(=O)Cc5ccc(C(F)(F)F)cc5)cc4)c3cc2OC)C1 [Example 76, (S)-N-(4-(7-((1-ethylpiperidin-3-yl)methoxy)-6-methoxyquinazolin-4-yl)phenyl)-2-(4-(trifluoromethyl)phenyl)acetamide] | ≤ 50 | ≤ 200 | ≤ 200
COc1cc2c(-c3ccc(NC(=O)Cc4ccc(C(F)(F)F)cc4)cc3)ncnc2cc1OCC1CCN(C)CC1 [Example 56, N-(4-(6-methoxy-7-((1-methylpiperidin-4-yl)methoxy)quinazolin-4-yl)phenyl)-2-(4-(trifluoromethyl)phenyl)acetamide] | ≤ 50 | – | ≤ 200
CCN1CCC(COc2cc3ncnc(-c4ccc(NC(=O)Cc5cccc(C(F)(F)F)c5)cc4)c3cc2OC)CC1 [Example 64, N-(4-(7-((1-ethylpiperidin-4-yl)methoxy)-6-methoxyquinazolin-4-yl)phenyl)-2-(3-(trifluoromethyl)phenyl)acetamide] | ≤ 50 | ≤ 200 | ≤ 200
COc1cc2ncnc(-c3ccc(NC(=O)Cc4ccc(C(F)(F)F)cc4)cc3)c2cc1OC1CCN(C(=O)OC(C)(C)C)CC1 [Example 137, tert-butyl 4-((7-methoxy-4-(4-(2-(4-(trifluoromethyl)phenyl)acetamido)phenyl)quinazolin-6-yl)oxy)piperidin-1-carboxylate] | ≤ 50 | 200 to 500 | –
COc1cc2c(-c3ccc(NC(=O)Cc4ccc(C(F)(F)F)nc4)cc3)ncnc2cc1OCC1CCN(C)CC1 [Example 101, N-(4-(6-methoxy-7-((1-methylpiperidin-4-yl)methoxy)quinazolin-4-yl)phenyl)-2-(6-(trifluoromethyl)pyridin-3-yl)acetamide] | ≤ 50 | – | ≤ 200
COc1ccc(CC(=O)Nc2ccc(-c3ncnc4cc(OCCCN5CCN(C)CC5)c(OC)cc34)cc2)cn1 [Example 81, N-(4-(6-methoxy-7-(3-(4-methylpiperazin-1-yl)propoxy)quinazolin-4-yl)phenyl)-2-(6-methoxypyridin-3-yl)acetamide] | ≤ 50 | ≤ 200 | ≤ 200
COc1cc2c(-c3ccc(NC(=O)Cc4ccc(C(F)(F)F)cc4)cc3)ncnc2cc1OC[C@H]1CCCNC1 [Example 75, (S)-N-(4-(6-methoxy-7-(piperidin-3-ylmethoxy)quinazolin-4-yl)phenyl)-2-(4-(trifluoromethyl)phenyl)acetamide] | ≤ 50 | ≤ 200 | ≤ 200
